From patent US11498930B2 (BLUERAY THERAPEUTICS (SHANGHAI) CO., LTD., priority 2018, dated 2022)
Where two headings read alike, the source gives them in different places.

Assays:
[1] = system: phosphorylation level of intracellular protein kinase (ERK) in MOLM13 cells; test: Phosphorylated protein kinase (p-ERK) cell experiment (AlphaLISA); type: cell-based; details: Homo sapiens, MOLM-13, MOLM13 cells
SHP2^E76A protein = SHP2^E76A protein (Homo sapiens (Human), UniProt Q06124, E76A); test: SHP2 enzyme activity inhibition experiment; type: biochemical
Chain of SHP2^E76A protein (Q06124 whole entry E76A): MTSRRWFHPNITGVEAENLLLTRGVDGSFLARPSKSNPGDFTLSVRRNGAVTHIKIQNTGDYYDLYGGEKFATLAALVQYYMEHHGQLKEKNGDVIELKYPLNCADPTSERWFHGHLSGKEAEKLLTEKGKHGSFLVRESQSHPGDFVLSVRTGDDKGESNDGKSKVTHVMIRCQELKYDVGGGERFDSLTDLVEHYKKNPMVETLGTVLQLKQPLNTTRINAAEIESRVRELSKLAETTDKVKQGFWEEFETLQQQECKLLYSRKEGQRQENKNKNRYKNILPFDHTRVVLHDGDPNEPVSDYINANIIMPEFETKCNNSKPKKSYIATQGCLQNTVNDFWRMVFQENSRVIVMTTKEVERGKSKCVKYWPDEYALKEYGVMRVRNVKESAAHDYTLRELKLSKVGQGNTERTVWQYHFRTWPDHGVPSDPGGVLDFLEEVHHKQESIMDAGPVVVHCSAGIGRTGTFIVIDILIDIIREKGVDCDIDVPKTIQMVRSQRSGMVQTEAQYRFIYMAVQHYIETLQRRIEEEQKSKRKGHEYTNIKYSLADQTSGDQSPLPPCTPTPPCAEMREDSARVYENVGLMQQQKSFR
Procedure, shortened: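 Compounds tested at 10 concentrations in 3-fold serial dilution. IC50 from a four-parameter Hill-slope nonlinear fit of enzyme activity versus concentration.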

MOLM-13 cells = test: MOLM-13 cell proliferation experiment; type: cell-based
Description: After 3 days, 5 µL of CellTiter-Glo reagent (Promega, ZG7572) was added to each well, and the plates were kept at room temperature in the dark for 10 minutes. The […] was detected by Spectra max i3 (Molecular Devices). The relative growth rate of the treated cells was compared with that of DMSO control.

[2] = p-ERK, 2 hours of cell treatment, Tables 2.1 and 2.2, read-out: IC50
[3] = SHP2 enzyme activity, Tables 1.1 and 1.2, read-out: IC50
[4] = Table 4, read-out: SHP2 enzyme activity IC50
[5] = Homo sapiens, MOLM-13, 72 h, MOLM-13 cell proliferation, 3 days, Tables 3.1 and 3.2, read-out: IC50
[6] = Homo sapiens, MOLM-13, read-out: MOLM-13 cell proliferation IC50

For `CC1C[C@@H](N)C2(CCN(c3ncc(Sc4ccnc(Cl)c4Cl)c4nccn34)CC2)C1` (stereo partly drawn) [(1R)-8-(8-((2,3-dichloropyridin-4-yl)thio)imidazo[1,2-c]pyrimidin-5-yl)-3-methyl-8-azaspiro[4.5]decan-1-amine], the IC50 ([1]; Table 4, read-out: p-ERK IC50) was 34 nM, the IC50 [1, 2] was < 100 nM and the IC50 (SHP2^E76A protein; [3]) was < 100 nM. The IC50 (SHP2^E76A protein; [4]) was 8 nM, the IC50 (MOLM-13 cells; [5]) was < 100 nM and the IC50 (MOLM-13 cells; [6]) was 28 nM.
`CN(C)c1nccc(Sc2cnc(N3CCC4(CCC[C@H]4N)CC3)n3ccnc23)c1Cl` [(R)-8-(8-((3-chloro-2-(dimethylamino)pyridin-4-yl)thio)imidazo[1,2-c]pyrimidin-5-yl)-8-azaspiro[4.5]decan-1-amine] was tested, and the IC50 [1, 2] was 100 to 1000 nM, the IC50 (SHP2^E76A protein; [3]) was < 100 nM and the IC50 (MOLM-13 cells; [5]) was 100 to 1000 nM.
For `Cc1nc(N)cc(Sc2cnc(N3CCC4(CC3)COC[C@H]4N)n3ccnc23)c1Cl` [(S)-8-(8-((6-amino-3-chloro-2-methyl-pyridin-4-yl)thio)imidazo[1,2-c]pyrimidin-5-yl)-2-oxa-8-azaspiro[4.5]decan-4-amine], the IC50 ([1]; Table 4, read-out: p-ERK IC50) was 160 nM, the IC50 [1, 2] was 100 to 1000 nM and the IC50 (SHP2^E76A protein; [3]) was < 100 nM. The IC50 (SHP2^E76A protein; [4]) was 34 nM, the IC50 (MOLM-13 cells; [5]) was 100 to 1000 nM and the IC50 (MOLM-13 cells; [6]) was 340 nM. The IC50 (MOLM-13 cells; MOLM-13 cell proliferation, 3 days, Tables 3.1 and 3.2, read-out: IC50) was < 100 nM.
Compound `N[C@@H]1CCCC12CCN(c1ncc(Sc3ccccc3Cl)c3nncn13)CC2` [(R)-8-(8-((2-chlorophenyl)thio)-[1,2,4]triazolo[4,3-c]pyrimidin-5-yl)-8-azaspiro[4.5]decan-1-amine] has an IC50 ([1]; Table 4, read-out: p-ERK IC50) of 548 nM, an IC50 [1, 2] of 100 to 1000 nM and an IC50 (SHP2^E76A protein; [3]) of 100 to 1000 nM. The IC50 (SHP2^E76A protein; [4]) was 140 nM, the IC50 (MOLM-13 cells; [5]) was 100 to 1000 nM and the IC50 (MOLM-13 cells; [6]) was 485 nM.
`N[C@@H]1CCCCC12CCN(c1ncc(Sc3cccc(Cl)c3Cl)c3nncn13)CC2` [(R)-3-(8-((2,3-dichlorophenyl)thio)-[1,2,4]triazolo[4,3-c]pyrimidin-5-yl)-3-azaspiro[5.5]undecan-7-amine] was tested, and the IC50 [1, 2] was 1000 to 10000 nM, the IC50 (SHP2^E76A protein; [3]) was 100 to 1000 nM and the IC50 (MOLM-13 cells; [5]) was 1000 to 10000 nM.
In the case of `Nc1cc(Sc2cnc(N3CCC4(CC3)COC[C@H]4N)n3ccnc23)c(Cl)c(Cl)n1` [(S)-8-(8-((6-amino-2,3-dichloropyridin-4-yl)thio)imidazo[1,2-c]pyrimidin-5-yl)-2-oxa-8-azaspiro[4.5]decan-4-amine], the IC50 ([1]; Table 4, read-out: p-ERK IC50) is reported as 28 nM, the IC50 [1, 2] is reported as < 100 nM and the IC50 (SHP2^E76A protein; [3]) is reported as < 100 nM. The IC50 (SHP2^E76A protein; [4]) was 9 nM, the IC50 (MOLM-13 cells; [5]) was < 100 nM and the IC50 (MOLM-13 cells; [6]) was 54 nM.
`Cc1nccc(Sc2cnc(N3CCC4(CCC[C@H]4N)CC3)n3cnnc23)c1Cl` [(R)-8-(8-((3-chloro-2-methylpyridin-4-yl)thio)-[1,2,4]triazolo[4,3-c]pyrimidin-5-yl)-8-azaspiro[4.5]decan-1-amine] was tested, and the IC50 ([1]; Table 4, read-out: p-ERK IC50) was 177 nM, the IC50 [1, 2] was 100 to 1000 nM and the IC50 (SHP2^E76A protein; [3]) was < 100 nM. The IC50 (SHP2^E76A protein; [4]) was 27 nM, the IC50 (MOLM-13 cells; [5]) was 100 to 1000 nM and the IC50 (MOLM-13 cells; [6]) was 232 nM.
For `N[C@@H]1CCCC12CCN(c1ncc(Sc3cccnc3C(F)(F)F)c3nccn13)CC2` [(R)-8-(8-((2-(trifluoromethyl)pyridin-3-yl)thio)imidazo[1,2-c]pyrimidin-5-yl)-8-azaspiro[4.5]decan-1-amine], the IC50 [1, 2] was 100 to 1000 nM, the IC50 (SHP2^E76A protein; [3]) was < 100 nM and the IC50 (MOLM-13 cells; [5]) was 100 to 1000 nM.
In the case of `C[C@@H]1OCC2(CCN(c3ncc(Sc4cccc(Cl)c4Cl)c4nncn34)CC2)[C@@H]1N` [listing 1 of 2 here], the IC50 ([1]; Table 4, read-out: p-ERK IC50) is reported as 195 nM, the IC50 (SHP2^E76A protein; [4]) is reported as 3 nM and the IC50 (MOLM-13 cells; [6]) is reported as 158 nM.
In the case of `Nc1cccc(Sc2cnc(N3CCC4(CCC[C@H]4N)CC3)n3cnnc23)c1Cl` [(R)-8-(8-((3-amino-2-chlorophenyl)thio)-[1,2,4]triazolo[4,3-c]pyrimidin-5-yl)-8-azaspiro[4.5]decan-1-amine], the IC50 ([1]; Table 4, read-out: p-ERK IC50) is reported as 245 nM, the IC50 [1, 2] is reported as 100 to 1000 nM and the IC50 (SHP2^E76A protein; [3]) is reported as < 100 nM. The IC50 (SHP2^E76A protein; [4]) was 25 nM, the IC50 (MOLM-13 cells; [5]) was 100 to 1000 nM and the IC50 (MOLM-13 cells; [6]) was 389 nM.
With `Nc1cc(Sc2cnc(N3CCC4(CCC[C@H]4N)CC3)n3cnnc23)c(Cl)c(Cl)n1` [(R)-8-(8-((6-amino-2,3-dichloropyridin-4-yl)thio)-[1,2,4]triazolo[4,3-c]pyrimidin-5-yl)-8-azaspiro[4.5]decan-1-amine] the IC50 ([1]; Table 4, read-out: p-ERK IC50) was 750 nM, the IC50 [1, 2] was 100 to 1000 nM and the IC50 (SHP2^E76A protein; [3]) was < 100 nM. It also gave an IC50 (SHP2^E76A protein; [4]) of 20 nM, an IC50 (MOLM-13 cells; [5]) of 100 to 1000 nM and an IC50 (MOLM-13 cells; [6]) of 303 nM.
`N[C@@H]1CCCC12CCN(c1ncc(Sc3ccnc(F)c3Cl)c3nccn13)CC2` [(R)-8-(8-((3-chloro-2-fluoropyridin-4-yl)thio)imidazo[1,2-c]pyrimidin-5-yl)-8-azaspiro[4.5]decan-1-amine] was tested, and the IC50 [1, 2] was 100 to 1000 nM, the IC50 (SHP2^E76A protein; [3]) was < 100 nM and the IC50 (MOLM-13 cells; [5]) was 100 to 1000 nM.
For `CC1C[C@@H](N)C2(CCN(c3ncc(Sc4cccc(Cl)c4Cl)c4nncn34)CC2)C1` (stereo partly drawn) [(1R)-8-(8-((2,3-dichlorophenyl)thio)-[1,2,4]triazolo[4,3-c]pyrimidin-5-yl)-3-methyl-8-azaspiro[4.5]decan-1-amine], the IC50 ([1]; Table 4, read-out: p-ERK IC50) was 64 nM, the IC50 (SHP2^E76A protein; [3]) was < 100 nM and the IC50 (SHP2^E76A protein; [4]) was 4 nM. For the same compound, the IC50 (MOLM-13 cells; [5]) was < 100 nM and the IC50 (MOLM-13 cells; [6]) was 59 nM.
For `N[C@@H]1CCCC12CCN(c1ncc(Sc3ccnc(Cl)c3Cl)c3nncn13)CC2` [(R)-8-(8-((2,3-dichloropyridin-4-yl)thio)-[1,2,4]triazolo[4,3-c]pyrimidin-5-yl)-8-azaspiro[4.5]decan-1-amine], the IC50 [1, 2] was 1000 to 10000 nM, the IC50 (SHP2^E76A protein; [3]) was < 100 nM and the IC50 (MOLM-13 cells; [5]) was 100 to 1000 nM.
For `Nc1nccc(Sc2cnc(N3CCC4(CCC[C@H]4N)CC3)n3ccnc23)c1Cl` [(R)-8-(8-((2-amino-3-chloropyridin-4-yl)thio)imidazo[1,2-c]pyrimidin-5-yl)-8-azaspiro[4.5]decan-1-amine], the IC50 ([1]; Table 4, read-out: p-ERK IC50) was 410 nM, the IC50 [1, 2] was 100 to 1000 nM and the IC50 (SHP2^E76A protein; [3]) was < 100 nM. For the same compound, the IC50 (SHP2^E76A protein; [4]) was 20 nM, the IC50 (MOLM-13 cells; [5]) was 100 to 1000 nM and the IC50 (MOLM-13 cells; [6]) was 270 nM.
For `N[C@@H]1CCCC12CCN(c1ncc(Sc3ccnc4ccccc34)c3nccn13)CC2` [(R)-8-(8-(quinolin-4-ylthio)imidazo[1,2-c]pyrimidin-5-yl)-8-azaspiro[4.5]decan-1-amine], the IC50 ([1]; Table 4, read-out: p-ERK IC50) was 31 nM, the IC50 [1, 2] was 100 to 1000 nM and the IC50 (SHP2^E76A protein; [3]) was < 100 nM. The IC50 (SHP2^E76A protein; [4]) was 20 nM, the IC50 (MOLM-13 cells; [5]) was < 100 nM and the IC50 (MOLM-13 cells; [6]) was 99 nM.
`C[C@@H]1OCC2(CCN(c3ncc(Sc4cccc(Cl)c4Cl)c4nncn34)CC2)[C@@H]1N` [listing 2 of 2 here] was tested, and the IC50 [1, 2] was 100 to 1000 nM, the IC50 (SHP2^E76A protein; [3]) was < 100 nM and the IC50 (MOLM-13 cells; [5]) was 100 to 1000 nM.
`N[C@@H]1CCCC12CCN(c1ncc(Sc3ccncc3Cl)c3nncn13)CC2` [(R)-8-(8-((3-chloropyridin-4-yl)thio)-[1,2,4]triazolo[4,3-c]pyrimidin-5-yl)-8-azaspiro[4.5]decan-1-amine] was tested, and the IC50 ([1]; Table 4, read-out: p-ERK IC50) was 357 nM, the IC50 [1, 2] was 100 to 1000 nM and the IC50 (SHP2^E76A protein; [3]) was 100 to 1000 nM. The IC50 (SHP2^E76A protein; [4]) was 100 nM, the IC50 (MOLM-13 cells; [5]) was 100 to 1000 nM and the IC50 (MOLM-13 cells; [6]) was 324 nM.
With `CC1C[C@@H](N)C2(CCN(c3ncc(Sc4ccnc(N)c4Cl)c4nccn34)CC2)C1` (stereo partly drawn) [(1R)-8-(8-((2-amino-3-chloropyridin-4-yl)thio)imidazo[1,2-c]pyrimidin-5-yl)-3-methyl-8-azaspiro[4.5]decan-1-amine] the IC50 ([1]; Table 4, read-out: p-ERK IC50) was 59 nM, the IC50 [1, 2] was < 100 nM and the IC50 (SHP2^E76A protein; [3]) was < 100 nM. The IC50 (SHP2^E76A protein; [4]) was 32 nM, the IC50 (MOLM-13 cells; [5]) was < 100 nM and the IC50 (MOLM-13 cells; [6]) was 54 nM.
In the case of `Cc1nc(N)cc(Sc2cnc(N3CCC4(CCC[C@H]4N)CC3)n3ccnc23)c1Cl` [(R)-8-(8-((6-amino-3-chloro-2-methyl-pyridin-4-yl)thio)imidazo[1,2-c]pyrimidin-5-yl)-8-azaspiro[4.5]decan-1-amine], the IC50 ([1]; Table 4, read-out: p-ERK IC50) is reported as 37 nM, the IC50 [1, 2] is reported as < 100 nM and the IC50 (SHP2^E76A protein; [4]) is reported as 17 nM. For the same compound, the IC50 (MOLM-13 cells; [6]) was 210 nM.
For `N[C@@H]1CCCC12CCN(c1ncc(Sc3ccncc3Cl)c3nccn13)CC2` [(R)-8-(8-((3-chloropyridin-4-yl)thio)imidazo[1,2-c]pyrimidin-5-yl)-8-azaspiro[4.5]decan-1-amine], the IC50 [1, 2] was 100 to 1000 nM, the IC50 (SHP2^E76A protein; [3]) was 100 to 1000 nM and the IC50 (MOLM-13 cells; [5]) was 100 to 1000 nM.
With `N[C@@H]1CC(O)CC12CCN(c1ncc(Sc3cccc(Cl)c3Cl)c3nccn13)CC2` (stereo partly shown) the IC50 ([1]; Table 4, read-out: p-ERK IC50) was 28 nM, the IC50 [1, 2] was < 100 nM and the IC50 (SHP2^E76A protein; [3]) was < 100 nM. For the same compound, the IC50 (SHP2^E76A protein; [4]) was 9 nM, the IC50 (MOLM-13 cells; [5]) was < 100 nM and the IC50 (MOLM-13 cells; [6]) was 42 nM.
